Measured values reported in article PMC11007943 (BMC Chemistry, 2024).
Where “and” joins values, the source holds several entries; their conditions need not be identical. Equal values may be shown once. Entries after “also recorded” stand apart in the source; their conditions may differ. Read-outs that look alike come from different tables or passages of the source.

Assays:
[1] = biological target: T1, BChE (Homo sapiens, UniProt P06276); conditions: read-out: IC50 against BChE; cited from earlier work
[2] = biological target: T1, BChE; assay: BChE inhibition, modified Ellman's method; format: biochemical
Procedure: Cholinesterase inhibitory activities of all derivatives were assessed using the modified Ellman’s method. Briefly, 20 µL AChE 0.18 units/mL, or 20 µL BChE 0.162 units/mL, and 20 µL DTNB (301 μM) were added to 200 μL sodium phosphate buffer (0.1 mol/L, pH = 7.4) in separate wells of a 96-well microplate and gently mixed. […]. The absorbance of each well was measured at 415 nm using a microplate reader. IC50 and inhibition values were calculated with the software curve expert as the mean of three independent experiments and expressed as mean ± SEM [25, 26].

[3] = biological target: T2, AChE (Homo sapiens, UniProt P22303); assay: biochemical; format: biochemical; conditions: for inhibition at 50 µM: mean ± S.E
[4] = biological target: T2, AChE; conditions: read-out: IC50 against AChE; cited from earlier work
[5] = cited from earlier work
[6] = biological target: T1, BChE; assay: Enzyme kinetic study against BChE (Lineweaver–Burk and secondary plots); format: biochemical
Description: […]. As the concentration of inhibitor 4k increased, the Michaelis–Menten constant (Km) increased, and the maximum reaction rate (Vmax) remained unaffected.
The Ki value provides important information about the strength of the interaction between the inhibitor and the enzyme (Fig. 4).
[…]. A Lineweaver–Burk plot was generated to determine the inhibition type and calculate the Michaelis–Menten constant (Km). Secondary plots were constructed to determine the experimental inhibitor constant (Ki).

[7] = mean ± S.E, read-out: BChE (IC50)
[8] = single graphs behind the mean BChE IC50 of Table 2, read-out: IC50 (individual IC50 graphs, Table S1)

T1 sequence (P06276 29-602): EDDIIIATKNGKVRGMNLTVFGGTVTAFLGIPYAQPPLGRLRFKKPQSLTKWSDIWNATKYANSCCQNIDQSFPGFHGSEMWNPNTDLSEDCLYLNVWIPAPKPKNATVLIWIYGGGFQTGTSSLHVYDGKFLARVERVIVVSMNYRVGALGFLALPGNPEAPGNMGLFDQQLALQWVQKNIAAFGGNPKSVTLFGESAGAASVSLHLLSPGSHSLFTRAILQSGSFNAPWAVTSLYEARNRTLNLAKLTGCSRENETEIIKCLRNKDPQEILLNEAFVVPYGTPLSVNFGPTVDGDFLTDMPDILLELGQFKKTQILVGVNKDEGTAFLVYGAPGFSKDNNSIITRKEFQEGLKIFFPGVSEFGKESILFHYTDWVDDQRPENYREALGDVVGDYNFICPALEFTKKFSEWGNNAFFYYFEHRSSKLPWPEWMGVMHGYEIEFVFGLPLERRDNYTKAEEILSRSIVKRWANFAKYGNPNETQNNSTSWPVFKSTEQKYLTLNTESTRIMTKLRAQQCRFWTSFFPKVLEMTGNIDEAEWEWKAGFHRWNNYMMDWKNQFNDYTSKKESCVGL
T2 sequence (P22303 32-614): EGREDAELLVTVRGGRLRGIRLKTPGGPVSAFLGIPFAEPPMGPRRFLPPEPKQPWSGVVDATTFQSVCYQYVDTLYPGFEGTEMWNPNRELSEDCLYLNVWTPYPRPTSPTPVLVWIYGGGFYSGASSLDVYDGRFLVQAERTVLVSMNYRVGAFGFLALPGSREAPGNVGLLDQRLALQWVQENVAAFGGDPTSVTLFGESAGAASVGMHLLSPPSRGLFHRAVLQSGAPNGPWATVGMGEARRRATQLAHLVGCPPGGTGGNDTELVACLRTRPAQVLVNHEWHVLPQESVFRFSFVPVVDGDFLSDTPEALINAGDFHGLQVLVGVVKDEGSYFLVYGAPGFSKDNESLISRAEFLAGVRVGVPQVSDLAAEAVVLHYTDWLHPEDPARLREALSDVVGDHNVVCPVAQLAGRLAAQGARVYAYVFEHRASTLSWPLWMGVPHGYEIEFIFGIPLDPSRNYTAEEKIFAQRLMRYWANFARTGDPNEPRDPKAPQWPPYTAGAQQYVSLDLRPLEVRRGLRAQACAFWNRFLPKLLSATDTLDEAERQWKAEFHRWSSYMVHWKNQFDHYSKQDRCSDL

SMILES | inhibition at 50 µM ([2]; mean ± S.E) [%] | inhibition at 50 µM [3] [%] | IC50 [2, 7] [nM] | IC50 [2, 8] | other results
N#CC1=C(N)Oc2c(c(=O)oc3ccccc23)C1c1cc[n+](Cc2ccc(F)cc2)cc1 (stereo not drawn) [F] | – | – | – | – | IC50 [1]: 1840 ± 120 nM
N#CC1=C(N)OC2=C(C(=O)CCC2)C1c1ccccc1OCc1ccc(Cl)cc1 (stereo not drawn) [Compound 4h, 2-Amino-4-{2-[(4-chlorobenzyl)oxy]phenyl}-5-oxo-5,6,7,8-tetrahydro-4H-chromene-3-carbonitrile] | 21.3 ± 2.69 | 7.35 ± 0.56 | – | – | –
COc1ccc(COc2ccccc2C2C(C#N)=C(N)OC3=C2C(=O)CCC3)cc1 (stereo not drawn) [Compound 4j, 2-Amino-4-{2-[(4-methoxybenzyl)oxy]phenyl}-5-oxo-5,6,7,8-tetrahydro-4H-chromene-3-carbonitrile] | 38.3 ± 4.36 | 16.3 ± 0.63 | – | – | –
N#CC1=C(N)OC2=C(C(=O)CCC2)C1c1cccc(OCc2ccc(Cl)cc2)c1 (stereo not drawn) [Compound 4f, 2-Amino-4-{3-[(4-chlorobenzyl)oxy]phenyl}-5-oxo-5,6,7,8-tetrahydro-4H-chromene-3-carbonitrile] | 62 ± 7.24 | 4.42 ± 0.57 | 5700 ± 680 | 6180 nM and 5210 nM | inhibitory activity against AChE (in words) [3]: nearly inactive
N#CC1=C(N)OC2=C(C(=O)CCC2)C1c1ccc([N+](=O)[O-])cc1 (stereo not drawn) [Compound 4b, 2-Amino-4-(4-nitrophenyl)-5-oxo-5,6,7,8-tetrahydro-4H-chromene-3-carbonitrile] | 58.7 ± 1.18 | 28.9 ± 2.56 | 27400 ± 2010 | 28800 nM and 26000 nM | –
CCOc1ccc2c(c1)OC/C(=C\c1ccc(OCCN3CCCCC3)cc1)C2=O [A] | – | – | – | – | IC50 [1]: 854 ± 40 nM
O=C(NCCCCCCCCCCNc1c2c(nc3ccccc13)CCCC2)c1cc(=O)c2cc(O)ccc2o1 [E] | – | – | – | – | IC50 [1]: 1500 ± 40 nM; IC50 [4]: 8000 ± 200 nM; BBB permeability [5]: 23.1 ± 0.1 × 10^−6 cm s^−1
N#CC1=C(N)OC2=C(C(=O)CCC2)C1c1ccccc1OCc1cccc(Cl)c1 (stereo not drawn) [Compound 4i, 2-Amino-4-{2-[(3-chlorobenzyl)oxy]phenyl}-5-oxo-5,6,7,8-tetrahydro-4H-chromene-3-carbonitrile] | 42.8 ± 1.22 | 19.4 ± 2.39 | – | – | –
N#CC1=C(N)OC2=C(C(=O)CCC2)C1c1ccccc1 (stereo not drawn) [Compound 4a, 2-Amino-5-oxo-4-phenyl-5,6,7,8-tetrahydro-4H-chromene-3-carbonitrile] | 39.8 ± 1.39 | 21 ± 1.31 | – | – | –
N#CC1=C(N)OC2=C(C(=O)CCC2)C1c1ccc(OCc2ccc(Cl)cc2)cc1 (stereo not drawn) [Compound 4c, 2-Amino-4-{4-[(4-chlorobenzyl)oxy]phenyl}-5-oxo-5,6,7,8-tetrahydro-4Hchromene-3-carbonitrile] | 77.7 ± 3.77 | 23.6 ± 1.2 | 890 ± 240 | 1070 nM and 720 nM | –
N#CC1=C(N)OC2=C(C(=O)CCC2)C1c1ccc(OCCN2CCCCC2)cc1 (stereo not drawn) [G] | – | – | – | – | IC50 [1]: 8100 ± 500 nM; IC50 [4]: 20400 ± 9300 nM
N#CC1=C(N)OC2=C(C(=O)CCC2)C1c1ccc(OCc2ccc(Br)cc2)cc1 (stereo not drawn) [Compound 4d, 2-Amino-4-{4-[(4-bromobenzyl)oxy]phenyl}-5-oxo-5,6,7,8-tetrahydro-4Hchromene-3-carbonitrile] | 67.8 ± 1.7 | 23.4 ± 1 | 1190 ± 310 | 1410 nM and 970 nM | –
COc1cc(C2C(C#N)=C(N)OC3=C2C(=O)CCC3)ccc1OCc1ccc(F)cc1 (stereo not drawn) [Compound 4k, 2-Amino-4-{4-[(4-fluorobenzyl)oxy]-3-methoxyphenyl}-5-oxo-5,6,7,8-tetrahydro-4H-chromene-3-carbonitrile] | 80.5 ± 5.08 | 41.1 ± 2.33 | 650 ± 130 | – | type of inhibition ([6]; Lineweaver–Burk plot, Km increased, Vmax unaffected): competitive-type inhibition; also recorded: competitive inhibitor; Ki ([6]; from secondary plot of slopes vs inhibitor concentration, R^2 = 0.9876, read-out: Ki (inhibition constant)): 550 nM
N#CC1=C(N)OC2=C(C(=O)CCC2)C1c1cccc(OCc2ccc(Br)cc2)c1 (stereo not drawn) [Compound 4g, 2-Amino-4-{3-[(4-bromobenzyl)oxy]phenyl}-5-oxo-5,6,7,8-tetrahydro-4Hchromene-3-carbonitrile] | 57.3 ± 9.75 | 15 ± 2.59 | 13100 ± 2590 | 11200 nM and 14900 nM | inhibitory activity against AChE (in words) [3]: nearly inactive
COc1cc(C2C(C#N)=C(N)OC3=C2C(=O)CCC3)ccc1OCc1cccc(Cl)c1 (stereo not drawn) [Compound 4m, A-amino-4-{4-[(3-chlorobenzyl)oxy]-3-methoxyphenyl}-5-oxo-5,6,7,8-tetrahydro-4H-chromene-3-carbonitrile] | 69.7 ± 1.52 | 12.9 ± 1.27 | 1510 ± 200 | – | IC50 ([2]; read-out: IC50 (individual IC50 graphs, Table S1)): 1650 nM and 1360 nM
N#CC1=C(N)OC2=C(C(=O)CCC2)C1c1ccc(OCCN2CCOCC2)cc1 (stereo not drawn) [Compound 4e, 2-Amino-4-[4-(2-morpholinoethoxy)phenyl]-5-oxo-5,6,7,8-tetrahydro-4Hchromene-3-carbonitrile] | 58.9 ± 0.93 | 34.4 ± 3.1 | 26300 ± 3340 | 28700 nM and 24000 nM | –
COc1cc(C2C(C#N)=C(N)OC3=C2C(=O)CCC3)ccc1OCc1cccc(F)c1 (stereo not drawn) [Compound 4l, 2-Amino-4-{4-[(3-fluorobenzyl)oxy]-3-methoxyphenyl}-5-oxo-5,6,7,8-tetrahydro-4H-chromene-3-carbonitrile] | 76.1 ± 0.88 | 33.6 ± 3.29 | 2630 ± 190 | 2770 nM and 2490 nM | –
O=C(O)c1coc2ccc(OCc3ccccc3)cc2c1=O [B] | – | – | – | – | IC50 [1]: 5240 nM; IC50 [4]: 370 nM; blood–brain barrier (BBB) permeability [5]: 5.4 ± 0.3 × 10^−6 cm s^−1
